Consider nine compounds from ChEMBL document CHEMBL2203228, “Structural modifications of a 3-methoxy-2-aminopyridine compound to reduce potential for mutagenicity and time-dependent drug-drug interaction” (Bioorg Med Chem Lett, 2012).

A word on the bioavailability: it is dose-corrected exposure relative to a reference, in per cent. The term clearance denotes a measure of how efficiently the substance is removed, as volume per time. As usually defined, the IC50 is the concentration that gives 50% inhibition. A word on the solubility: it is the concentration that dissolves in the medium under given conditions. By half-life is commonly meant how long it takes for the measured level to halve.

≈ marks a conversion by molar mass, not a printed value. A value given as a limit tells only on which side of the number the result lay.

Series [1] deals with T1, Cytochrome P450 3A4 (Homo sapiens, UniProt P08684). The experiment in a line: Time dependent inhibition of human liver microsome CYP3A4 assessed as change in midazolam metabolism at 60 uM by two-step reaction. It is filed as ADME. On the set-up: scale not given: the % may be the effect or the level left. The settings on record: microsomes. A general note: Microsomes from liver hold many membrane-bound enzymes, among them those of drug oxidation.

For series [2], the system named is Salmonella typhimurium. The series can be described thus: Mutagenic activity in Salmonella typhimurium assessed as fold increase in colony forming units by Bioluminescent Ames assay relative to control. It is filed as toxicity, organism-based. The settings on record: salmonella enterica subsp. enterica serovar typhimurium. On the technique in general: The Ames test detects mutagens through reverse mutation in bacteria.

A short description of series [3]: Oral bioavailability in rat. It is filed as ADME, organism-based. The settings on record: in vivo.
Series [4] addresses T1, Cytochrome P450 3A4. The experiment in a line: Time dependent inhibition of CYP3A4. In kind it is ADME. Conditions: TDE = time-dependent effect.
A short description of series [5]: Clearance in rat. The settings on record: in vivo. In kind it is ADME, organism-based.
Series [6] deals with Serine/threonine-protein kinase B-raf (Homo sapiens, UniProt P15056, V600E). The series can be described thus: Inhibition of B-Raf V600E mutant -mediated MEK phosphorylation.
Series [7] is described as follows: Solubility of the compound. It is filed as physicochemical.
A short description of series [8]: Half life in rat. It is filed as ADME, organism-based. Conditions: in vivo.

T1 sequence (P08684 whole entry): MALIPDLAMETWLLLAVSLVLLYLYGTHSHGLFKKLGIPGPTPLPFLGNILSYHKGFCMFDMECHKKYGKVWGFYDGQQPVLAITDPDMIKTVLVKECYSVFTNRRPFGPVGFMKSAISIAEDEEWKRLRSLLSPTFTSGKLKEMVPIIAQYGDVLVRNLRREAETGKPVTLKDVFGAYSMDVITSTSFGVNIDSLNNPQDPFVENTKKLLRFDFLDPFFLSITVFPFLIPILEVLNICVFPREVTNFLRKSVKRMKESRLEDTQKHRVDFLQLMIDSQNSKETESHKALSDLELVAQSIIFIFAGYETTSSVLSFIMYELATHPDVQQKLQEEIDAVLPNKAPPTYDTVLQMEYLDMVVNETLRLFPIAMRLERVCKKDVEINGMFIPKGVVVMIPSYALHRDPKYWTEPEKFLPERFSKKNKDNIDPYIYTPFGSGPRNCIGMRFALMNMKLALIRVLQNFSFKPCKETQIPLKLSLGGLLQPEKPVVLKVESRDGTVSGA
Sequence of Serine/threonine-protein kinase B-raf (P15056 2-766 V600E limits assumed): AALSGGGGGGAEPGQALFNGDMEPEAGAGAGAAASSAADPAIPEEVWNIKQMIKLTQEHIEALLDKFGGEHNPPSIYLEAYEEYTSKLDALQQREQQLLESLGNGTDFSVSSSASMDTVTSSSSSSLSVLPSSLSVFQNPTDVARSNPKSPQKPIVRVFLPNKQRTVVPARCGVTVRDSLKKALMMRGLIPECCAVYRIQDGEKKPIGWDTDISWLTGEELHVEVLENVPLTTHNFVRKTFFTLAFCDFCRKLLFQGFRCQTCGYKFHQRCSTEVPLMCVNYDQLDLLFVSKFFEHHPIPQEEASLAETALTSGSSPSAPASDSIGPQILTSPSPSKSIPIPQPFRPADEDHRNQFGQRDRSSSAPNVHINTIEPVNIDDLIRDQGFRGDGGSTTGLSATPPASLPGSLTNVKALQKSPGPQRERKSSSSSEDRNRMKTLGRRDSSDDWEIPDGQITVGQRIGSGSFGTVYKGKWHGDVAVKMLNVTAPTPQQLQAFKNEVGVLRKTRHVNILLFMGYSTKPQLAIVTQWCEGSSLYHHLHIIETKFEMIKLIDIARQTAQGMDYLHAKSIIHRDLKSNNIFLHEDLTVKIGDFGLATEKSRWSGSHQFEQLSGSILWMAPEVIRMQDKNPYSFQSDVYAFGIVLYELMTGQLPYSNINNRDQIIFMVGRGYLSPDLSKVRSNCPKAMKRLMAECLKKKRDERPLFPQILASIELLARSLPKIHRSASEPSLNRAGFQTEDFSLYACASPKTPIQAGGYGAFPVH

On to `CC(=O)c1cc(-c2nn(C(C)C)cc2-c2ccnc(NC[C@H](C)O)n2)cnc1N`, for which the Activity in series [1] is listed as below 30%. In series [2], the “fold change (FC)” value is below 2.

As for `COc1cncc(-c2nn(C(C)C)cc2-c2ccnc(NC[C@H](C)O)n2)c1`, the Activity in series [1] was below 30%. Further, the “fold change (FC)” value in series [2] is on record as below 2.

Turning to `CC(C)n1cc(-c2ccnc(NC[C@H](C)O)n2)c(-c2cnc3[nH]ncc3c2)n1`, the Activity in series [1] was below 30%. The “fold change (FC)” value in series [2] is below 2.

`CC(C)n1cc(-c2ccnc(NC[C@H](C)O)n2)c(-c2cnc3[nH]ccc3c2)n1`: in series [1], the Activity was determined as 11%. Moreover, the “fold change (FC)” value in series [2] is recorded as below 2.

As for `Cc1c[nH]c2ncc(-c3nn(C(C)C)cc3-c3ccnc(NC[C@H](C)O)n3)cc12`, the Activity in series [1] turned out to be 11%. Also, the “fold change (FC)” value in series [2] is listed as below 2.

With `CC(C)n1cc(-c2ccnc(NC[C@H](C)O)n2)c(-c2cnc3[nH]cc(Cl)c3c2)n1`, the Activity in series [1] is on record as 11%. The “fold change (FC)” value in series [2] was below 2.

Turning to `COc1cc(-c2nn(C(C)C)cc2-c2ccnc(NC[C@H](C)O)n2)cnc1N`, the Activity is listed as 13% in series [1] and “Non-toxic” in series [2]. In addition, in series [3], the bioavailability was 43%. Further, in series [4], the “inhibition (INH)” value is “tde”. The compound further displayed a clearance in series [5] of 56.3 mL/min/kg. In series [6], the concentration for half-maximal inhibition (IC50) came to 6.5 nM. The solubility in series [7] was found to be 503 µM (≈ 193 µg/mL). In addition, the “fold change (FC)” value in series [2] was found to be 4. The same compound showed a half-life in series [8] of 4.43 h.

For the compound `COc1cc(-c2nn(C(C)C)cc2-c2ccnc(NC[C@H](C)O)n2)c(C)nc1N`, the Activity entry in series [2] is on record as “Toxic”.

As for `COc1nc(-c2nn(C(C)C)cc2-c2ccnc(NC[C@H](C)O)n2)cnc1N`, the Activity in series [1] is reported as 30%. Further, in series [2], the “fold change (FC)” value worked out at 4.
